Laboratory results: patent publication US20090175845A1, “METHODS FOR IDENTIFYING COMPOUNDS THAT MODULATE PHB DOMAIN PROTEIN ACTIVITY AND COMPOSITIONS THEREOF” (THE TRUSTEES OF COLUMBIA UNIVERSITY IN THE CITY OF NEW YORK, priority 2005, published 2009)

Key:
[1] = system: mec-2 null worms expressing the mec-2(C140/174A) gene; assay: C. elegans gentle touch sensitivity on plates with defined sterols; assay type: in vivo; conditions: sterol substituted for cholesterol in the growth medium, FIG. 8C
Procedure: C. elegans experiments. C. elegans strains were cultured at 20° C., assayed for touch sensitivity, and prepared for immunofluorescence as described previously [Zhang et al. (2004) Curr. Biol. 14:1888-96; Goodman et al. (2002) Nature 415:1039-42]. Briefly, C. elegans strains were cultured at 20° C. as described in the art. Strains were grown for at least three consecutive generations without starvation before carrying out the experiments described herein. Gentle touch and harsh touch sensitivity were assayed in blind tests by stimulating with an eyebrow hair or prodding with a platinum wire, respectively, as described in the art. To quantify the response, the number of responses in about 30 animals to 10 touches delivered alternately near the head and tail was recorded. Whole-mount immunofluorescence microscopy was carried out using methods known in the art.
Media for growth on limiting or no cholesterol or on other sterols were prepared from chloroform-extracted reagents as described by Matyash et al. [(2004) PLoS Biol. 2: e280].
First, a version of MEC-2 with reduced cholesterol binding was generating by mutating the predicted palmitoylation sites of the protein. Briefly, HEK293T cells were transfected with wild type MEC-2 or MEC-2(C140/174A) and labeled with [^3H]palmitic acid or [^3H]photoaffinity cholesterol. Equal expression of proteins in the lysates was confirmed on Western blots. […] Because touch sensitivity of wild-type animals was not affected by this limited cholesterol depletion, the effects observed with the palmitoylation mutant cannot be attributed to indirect effects on neuronal growth or development. Test compounds that target palmitoylation sites in PHB domain proteins can be used to modulate activity of such proteins, for example, by reducing their activity.

Podocin = target: T1, Podocin (Mus musculus, UniProt Q91X05); assay: Detergent-resistant membrane (DRM) fractionation by density gradient centrifugation; assay type: cell-based; conditions: limited cholesterol depletion with MBCD; readdition of cholesterol, FIG. 1D
T1 construct: expressed in transfected cells; host or cells: HEK 293T
T1 sequence (Q91X05 1-385): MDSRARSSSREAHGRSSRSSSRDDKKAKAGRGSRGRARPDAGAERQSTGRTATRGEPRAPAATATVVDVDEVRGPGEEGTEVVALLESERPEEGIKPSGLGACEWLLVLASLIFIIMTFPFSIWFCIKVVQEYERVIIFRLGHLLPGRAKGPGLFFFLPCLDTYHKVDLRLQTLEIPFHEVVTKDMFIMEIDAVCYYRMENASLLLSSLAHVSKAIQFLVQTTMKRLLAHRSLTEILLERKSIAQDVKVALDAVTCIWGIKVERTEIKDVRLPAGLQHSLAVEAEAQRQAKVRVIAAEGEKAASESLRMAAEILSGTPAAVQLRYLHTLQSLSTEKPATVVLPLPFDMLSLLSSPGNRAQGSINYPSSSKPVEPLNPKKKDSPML
Procedure: Preparation of Detergent-Resistant Membrane Domains and Cholesterol Measurement—For preparation of low-density Triton® X-100—insoluble membrane domains (DRM; LDF) HEK 293T cells were homogenized by 20 strokes in a Dounce homogenizer in 1 ml of MBS buffer (250 mM NaCl, 5 mM EDTA, 10 mM Tris, pH 7.4, proteinase inhibitors) in the presence of 1% Triton® X-100 and centrifuged for ten minutes at 3,000×g at 4° C. The lysates were incubated for 45 minutes on ice in the presence of 1% Triton® X-100, adjusted to 45% sucrose and pipetted at the bottom of an ultracentrifuge tube. Samples were then overlaid with a sucrose step gradient (2 ml of 30% sucrose and 1 ml of 5% sucrose in MBS) as described previously {Huber, 2003 #205}. Gradients were centrifuged for 20 hours at 200,000×g at 4° C. in a swing-out rotor, and seven fractions ([…] each) were collected starting from the top and analyzed by SDS-PAGE. Cholesterol was measured using the Amplex® Red Cholesterol Assay Kit (Molecular Probes).
Cell Culture Studies. Most cell studies used HEK 293T cells that were grown in DMEM as described [Huber et al. (2001) J. Biol. Chem. 18:18]. Cholesterol-depleted cells were prepared by growing cells in DMEM with pravastatin (8 μM) for two days and then methyl-β-cyclodextrine (MBCD; 5 mM) for 30 minutes just before the experiment. […]

## CC(C)CCC[C@@H](C)[C@H]1CC[C@H]2[C@@H]3CC=C4C[C@@H](O)CC[C@]4(C)[C@H]3CC[C@]12C [cholesterol]
[1]
  rescue of reduced touch sensitivity: dependent on the cholesterol concentration
Podocin
  Podocin in DRM fractions: could be reversed
